IC50 data for one substance are collected here from article PMC8724943 (Translational Oncology, 2021).

This test addresses p21 activated kinase 4 (PAK4) (Homo sapiens, UniProt O96013). In words: in vitro radiometric kinase assay. Type of test: biochemical.

Sequence of p21 activated kinase 4 (PAK4) (O96013 whole entry): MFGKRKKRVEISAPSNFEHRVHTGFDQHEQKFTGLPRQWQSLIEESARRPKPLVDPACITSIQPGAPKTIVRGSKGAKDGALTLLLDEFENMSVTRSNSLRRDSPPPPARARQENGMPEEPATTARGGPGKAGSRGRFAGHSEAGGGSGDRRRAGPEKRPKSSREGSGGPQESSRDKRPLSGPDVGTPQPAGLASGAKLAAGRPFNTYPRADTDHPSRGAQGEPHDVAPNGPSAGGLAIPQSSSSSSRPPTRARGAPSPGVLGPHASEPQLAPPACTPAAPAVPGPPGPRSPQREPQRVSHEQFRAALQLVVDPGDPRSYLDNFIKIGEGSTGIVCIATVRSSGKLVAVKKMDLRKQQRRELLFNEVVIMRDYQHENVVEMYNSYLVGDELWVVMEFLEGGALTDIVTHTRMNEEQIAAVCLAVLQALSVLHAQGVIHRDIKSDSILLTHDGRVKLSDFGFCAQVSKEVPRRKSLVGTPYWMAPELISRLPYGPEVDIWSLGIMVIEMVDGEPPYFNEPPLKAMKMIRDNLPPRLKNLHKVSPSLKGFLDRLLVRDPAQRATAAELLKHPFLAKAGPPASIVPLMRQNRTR

PAKib displayed an IC50 of roughly 500 nM.
